# Reference: PubChem BioAssay AID1963433 (Molecular Pharmacology Branch, DTP, NCI, 2024)
# System: 772245-204-R-J1-PDC complex spheroid growth
# Test: Anticancer human tumor 772245-204-R-J1-PDC patient-derived rhabdomyosarcoma cell line growth inhibition [Asc]
# Conditions: for IC50: curve of first compound; for viability, T/C: stronger effect = lower value
# How it was run: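 Complex solid-tumor spheroids incorporating human endothelial and mesenchymal stem cells received single agents or combinations over half-log dilution ranges anchored to clinical Cmax.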
# 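Further: compound exposure lasted seven days.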
# 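Wherever viability, T/C is given: 100% = DMSO vehicle control viability.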
structure (smiles),measurement,setting,value
NC(=O)C(=Cn1cnc(-c2cc(C(F)(F)F)cc(C(F)(F)F)c2)n1)c1cncnc1 + Cc1c(S(C)(=O)=O)c(-c2cc(F)cc(N3CCN(c4ccc(NS(=O)(=O)c5ccc(NC(CCN6CCC(C(=O)OCCCP(=O)(O)O)CC6)CSc6ccccc6)c(S(=O)(=O)C(F)(F)F)c5)cc4)CC3)c2)c(-c2ccc(Cl)cc2)n1C(C)C,IC50,second compound 0.1 µM,22 nM
same,IC50,second compound 0.316 µM,6.58 nM
same,IC50,second compound 1 µM,< 0.949 nM
same,IC50,second compound 3.16 µM,< 0.949 nM
same,IC50,second compound 10 µM,< 0.949 nM
same,"viability, T/C","second compound 0.1 µM, first compound 0.000949 µM",80.2%
same,"viability, T/C","second compound 0.1 µM, first compound 0.003 µM",72.2%
same,"viability, T/C","second compound 0.1 µM, first compound 0.00949 µM",64%
same,"viability, T/C","second compound 0.1 µM, first compound 0.03 µM",43.2%
same,"viability, T/C","second compound 0.1 µM, first compound 0.0949 µM",29.6%
same,"viability, T/C","second compound 0.1 µM, first compound 0.3 µM",12.6%
same,"viability, T/C","second compound 0.316 µM, first compound 0.000949 µM",58.1%
same,"viability, T/C","second compound 0.316 µM, first compound 0.003 µM",64%
same,"viability, T/C","second compound 0.316 µM, first compound 0.00949 µM",42.1%
same,"viability, T/C","second compound 0.316 µM, first compound 0.03 µM",29.2%
same,"viability, T/C","second compound 0.316 µM, first compound 0.0949 µM",10.3%
same,"viability, T/C","second compound 0.316 µM, first compound 0.3 µM",3.73%
same,"viability, T/C","second compound 1 µM, first compound 0.000949 µM",41.2%
same,"viability, T/C","second compound 1 µM, first compound 0.003 µM",34.8%
same,"viability, T/C","second compound 1 µM, first compound 0.00949 µM",24%
same,"viability, T/C","second compound 1 µM, first compound 0.03 µM",8.43%
same,"viability, T/C","second compound 1 µM, first compound 0.0949 µM",4.25%
same,"viability, T/C","second compound 1 µM, first compound 0.3 µM",1.91%
same,"viability, T/C","second compound 3.16 µM, first compound 0.000949 µM",42.5%
same,"viability, T/C","second compound 3.16 µM, first compound 0.003 µM",27.8%
same,"viability, T/C","second compound 3.16 µM, first compound 0.00949 µM",23.9%
same,"viability, T/C","second compound 3.16 µM, first compound 0.03 µM",2.44%
same,"viability, T/C","second compound 3.16 µM, first compound 0.0949 µM",0.58%
same,"viability, T/C","second compound 3.16 µM, first compound 0.3 µM",0.81%
same,"viability, T/C","second compound 10 µM, first compound 0.000949 µM",32.9%
same,"viability, T/C","second compound 10 µM, first compound 0.003 µM",39.9%
same,"viability, T/C","second compound 10 µM, first compound 0.00949 µM",22.2%
same,"viability, T/C","second compound 10 µM, first compound 0.03 µM",5.99%
same,"viability, T/C","second compound 10 µM, first compound 0.0949 µM",0.9%
same,"viability, T/C","second compound 10 µM, first compound 0.3 µM",0.59%
